How the values were obtained:
[1] = test system: A549-ACE2 infected with SARS-CoV-2; test: cell count relative to DMSO; higher = less toxic; conditions: 24 h
[2] = test system: U2OS; test: drug sensitivity score (DSS) for viability; higher = more toxic; extreme values may be limits of the assay; conditions: 72 h
[3] = test system: Caco-2; test: as above; conditions: 72 h
[4] = test system: Vero E6; test: as above; conditions: 72 h
[5] = test system: HepG2; test: as above; conditions: 72 h
[6] = test system: Calu-3; test: as above; conditions: 72 h
[7] = test system: A549-ACE2; test: drug-induced phospholipidosis relative to tamoxifen; higher = more phospholipidosis
[8] = test system: A549-ACE2 infected with SARS-CoV-2; test: SARS-CoV-2 infection rate relative to DMSO; higher = more infection; conditions: 24 h
[9] = test system: A549-ACE2 infected with SARS-CoV-2; test: morphology score (similarity to uninfected cells); higher = more like uninfected cells; conditions: 24 h
[10] = test system: Caco-2; test: relative viability EC50 (midpoint between 100% and the lowest measured viability); higher = less toxic; conditions: 72 h
[11] = test system: Vero E6; test: as above; conditions: 72 h
[12] = test system: Calu-3; test: as above; conditions: 72 h
[13] = test system: U2OS; test: cell viability relative to DMSO; higher = less toxic; conditions: 72 h
[14] = test system: Caco-2; test: as above; conditions: 72 h
[15] = test system: Vero E6; test: as above; conditions: 72 h
[16] = test system: HepG2; test: as above; conditions: 72 h
[17] = test system: Calu-3; test: as above; conditions: 72 h
[18] = test system: U2OS; test: relative viability EC50 (midpoint between 100% and the lowest measured viability); higher = less toxic; conditions: 72 h
[19] = test system: HepG2; test: as above; conditions: 72 h

CN1CCN(S(=O)(=O)c2ccc(-c3cnc(N)c(C(=O)Nc4cccnc4)n3)cc2)CC1 [AZD2858]
Conditions | SARS-CoV-2 infection rate, [8] [%] | cell count, [1] [%] | cell viability, [13] [%] | cell viability, [14] [%] | cell viability, [15] [%] | cell viability, [16] [%] | cell viability, [17] [%] | morphology score, [9]
1 nM | – | – | 92.4 | 96.7 | 98.5 | 104 | 98.2 | –
10 nM | – | – | 99.5 | 96.7 | 93.1 | 104 | 102 | –
0.1 µM | 103 | 100 | – | – | – | – | – | -0.23
100 nM | – | – | 96.6 | 102 | 100 | 101 | 99.4 | –
0.3 µM | 100 | 96 | – | – | – | – | – | -0.27
1 µM | 86 | 107 | – | – | – | – | – | -0.14
1000 nM | – | – | 100 | 108 | 102 | 97.3 | 114 | –
3 µM | 95 | 97 | – | – | – | – | – | -0.15
10000 nM | – | – | 73.8 | 82.3 | 78.8 | 70.4 | 85.7 | –

Conditions | drug sensitivity score | relative viability EC50 [µM]
[2] | 1 | –
[3] | 0.2 | –
[4] | 0.6 | –
[5] | 1.7 | –
[6] | 0 | –
[10] | – | > 10
[11] | – | > 10
[12] | – | > 10

drug-induced phospholipidosis [%], [7]
Conditions | 0.3 µM | 0.833333 µM | 3.33333 µM | 6.66667 µM | 10 µM | 30 µM
24 h | -4.95 | -12.2 | -21.2 | -22.8 | -21.3 | -18.1
48 h | 1.83 | -4.03 | -14.2 | – | – | –
72 h | 1.77 | -0.315 | -6.78 | – | – | –

Cc1cc(C(C)(C)C)c(O)c(C)c1CC1=NCCN1 [oxymetazoline]
Conditions | drug sensitivity score | relative viability EC50 [µM]
[2] | 0 | –
[3] | 0.9 | –
[4] | 0 | –
[5] | 1.5 | –
[6] | 0 | –
[10] | – | > 10
[11] | – | > 10
[12] | – | > 10
[18] | – | > 10
[19] | – | > 10

cell viability [%]
Conditions | [13] | [14] | [15] | [16] | [17]
1 nM | 100 | 97.6 | 100 | 103 | 92.1
10 nM | 99.5 | 93.7 | 106 | 87.9 | 92.3
100 nM | 98.9 | 80.4 | 102 | 104 | 94.5
1000 nM | 100 | 96.6 | 95.7 | 84 | 101
10000 nM | 96.4 | 83.6 | 98.7 | 88 | 107

CCC[C@H](N[C@@H](C)C(=O)N1[C@H](C(=O)O)C[C@@H]2CCCC[C@@H]21)C(=O)O [perindoprilat]
Conditions | drug sensitivity score | relative viability EC50 [µM]
[2] | 0 | –
[3] | 0 | –
[4] | 0 | –
[5] | 0 | –
[6] | 0 | –
[10] | – | > 10
[11] | – | > 10
[12] | – | > 10
[18] | – | > 10
[19] | – | > 10

cell viability [%]
Conditions | [13] | [14] | [15] | [16] | [17]
1 nM | 95.2 | 103 | 104 | 104 | 100
10 nM | 98.5 | 93.9 | 104 | 96.3 | 96.1
100 nM | 94.6 | 107 | 100 | 103 | 90.6
1000 nM | 105 | 96.8 | 95.3 | 105 | 103
10000 nM | 92.2 | 138 | 97.8 | 96.5 | 93.2

CC(C)NCC(O)c1ccc2ccccc2c1 (configuration not stated) [pronethalol]
Conditions | drug sensitivity score | relative viability EC50 [µM]
[2] | 0 | –
[3] | 0 | –
[4] | 0 | –
[5] | 0 | –
[6] | 0 | –
[10] | – | > 10
[11] | – | > 10
[12] | – | > 10
[18] | – | > 10
[19] | – | > 10

cell viability [%]
Conditions | [13] | [14] | [15] | [16] | [17]
1 nM | 98.5 | 89.8 | 112 | 105 | 91.1
10 nM | 105 | 97.7 | 106 | 91.6 | 99
100 nM | 97.7 | 87.4 | 100 | 104 | 101
1000 nM | 102 | 90.8 | 94.3 | 87 | 93.8
10000 nM | 95.5 | 93.1 | 98.7 | 106 | 93.8

Cc1oc(=O)oc1CN1CCN(c2cc3c(cc2F)c(=O)c(C(=O)O)c2n3C(C)S2)CC1 (configuration not stated) [prulifloxacin]
Conditions | drug sensitivity score | relative viability EC50 [µM]
[2] | 0 | –
[3] | 0 | –
[4] | 0 | –
[5] | 0 | –
[6] | 0 | –
[10] | – | > 10
[11] | – | > 10
[12] | – | > 10
[18] | – | > 10
[19] | – | > 10

cell viability [%]
Conditions | [13] | [14] | [15] | [16] | [17]
1 nM | 95.8 | 94.8 | 102 | 107 | 104
10 nM | 99.8 | 91.6 | 111 | 112 | 95.8
100 nM | 100 | 120 | 115 | 110 | 99.4
1000 nM | 95.7 | 103 | 94.5 | 106 | 96.2
10000 nM | 100 | 97.8 | 97.3 | 97.2 | 97.3

CC(C)[C@H](CO)Nc1nc(Nc2ccc(C(=O)O)c(Cl)c2)c2ncn(C(C)C)c2n1 [purvalanol-B]
Conditions | drug sensitivity score | relative viability EC50 [µM]
[2] | 0 | –
[3] | 0 | –
[4] | 0 | –
[5] | 0 | –
[6] | 0 | –
[10] | – | > 10
[11] | – | > 10
[12] | – | > 10
[18] | – | > 10
[19] | – | > 10

cell viability [%]
Conditions | [13] | [14] | [15] | [16] | [17]
1 nM | 97.1 | 89.4 | 94 | 93.5 | 111
10 nM | 96.1 | 91.9 | 96.4 | 99.2 | 101
100 nM | 101 | 103 | 95.9 | 99.1 | 106
1000 nM | 103 | 96.8 | 94.9 | 98.4 | 114
10000 nM | 107 | 98.3 | 103 | 98.9 | 95.5
